ChEMBL document CHEMBL6153123, “Discovery of Potent and Brain-Penetrant Bicyclic NLRP3 Inhibitors with Peripheral and Central In Vivo Activity” (J Med Chem, 2025)

What was measured:
physchem = details: buffer, pH 7.4
in vitro = details: dog, MDCK-MDR1
in vivo = details: male, CD1, mouse, brain and plasma, po

| Structure (SMILES) | chromatographic logD (physchem) | Papp A→B (in vitro) [×10⁻⁶ cm/s] | Kp uu (in vivo) |
| --- | --- | --- | --- |
| CN1C[C@H](Nc2nnc(-c3ccc(C(F)(F)F)cc3O)c3ccnn23)CC(F)(F)C1 | 3.85 | 13 | – |
| Cc1cc(C(F)(F)F)cc(O)c1-c1nnc(N[C@@H]2CCCN(C)C2)n2nccc12 | 1.73 | 26 | 0.056 |
